Patent US7932420B2, “Sulfonamides” (Allergan, Inc., priority 2005, dated 2011)

Columns and labels:
hEP2 [1] = target: T1, hEP2 (Homo sapiens, UniProt P43116); assay: in-vitro binding to prostaglandin receptor (bhEP2); conditions: human EP2
hEP4 = hEP4 (Homo sapiens, UniProt P35408); assay: in-vitro binding to prostaglandin receptor (bhEP4); conditions: human EP4
[2] = tested on: EP2 and EP4 receptors as compared to the FP, EP1, TP, IP and DP receptors; assay: in-vitro assay for binding to and activity at prostaglandin receptors (selectivity)
hEP2 [3] = target: T1, hEP2; assay: in-vitro activity at prostaglandin receptor (fhEP2); format: cell-based; conditions: functional, human EP2

T1 sequence (P43116 whole entry): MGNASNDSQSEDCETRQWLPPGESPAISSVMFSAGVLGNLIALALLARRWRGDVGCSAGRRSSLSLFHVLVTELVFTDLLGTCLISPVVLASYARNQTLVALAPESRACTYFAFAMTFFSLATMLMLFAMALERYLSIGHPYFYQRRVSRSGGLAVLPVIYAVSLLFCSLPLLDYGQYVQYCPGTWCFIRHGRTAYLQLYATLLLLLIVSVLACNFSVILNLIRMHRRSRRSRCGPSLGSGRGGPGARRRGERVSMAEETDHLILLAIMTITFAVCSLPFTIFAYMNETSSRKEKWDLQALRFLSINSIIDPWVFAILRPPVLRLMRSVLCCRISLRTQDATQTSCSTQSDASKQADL
Sequence of hEP4 (P35408 whole entry): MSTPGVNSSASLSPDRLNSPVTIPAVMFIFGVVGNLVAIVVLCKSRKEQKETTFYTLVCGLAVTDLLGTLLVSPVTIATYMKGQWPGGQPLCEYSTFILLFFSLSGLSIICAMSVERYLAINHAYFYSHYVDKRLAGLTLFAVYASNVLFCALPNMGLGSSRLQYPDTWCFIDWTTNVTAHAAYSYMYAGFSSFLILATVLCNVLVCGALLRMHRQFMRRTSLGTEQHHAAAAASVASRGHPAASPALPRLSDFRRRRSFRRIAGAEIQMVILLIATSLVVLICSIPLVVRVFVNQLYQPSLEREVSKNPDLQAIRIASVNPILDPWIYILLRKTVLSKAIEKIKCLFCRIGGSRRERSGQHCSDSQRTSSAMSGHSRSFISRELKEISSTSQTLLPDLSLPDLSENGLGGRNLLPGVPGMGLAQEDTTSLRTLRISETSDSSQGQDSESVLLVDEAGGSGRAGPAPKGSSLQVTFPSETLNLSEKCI

bhEP2 (hEP2 [1]): 5560
bhEP4 (hEP4): 50K
selectivity among prostaglandin receptors [2]: selective at the EP2 and EP4 receptors
fhEP2 (hEP2 [3]): 248
SMILES: CCCC1(C(O)C/C=C/CN(CCCCCCC(=O)O)S(C)(=O)=O)CCC1 (stereo not shown) [Example 10, 7-[[5-Hydroxy-5-(1-propylcyclobutyl)pent-2-enyl]methanesulfonylamino]heptanoic acid]
